Laboratory results published in US10393744B2, “Peptides for targeting colorectal cancer, and medical use thereof” (UNIVERSITY OF ULSAN FOUNDATION FOR INDUSTRY COOPERATION, priority 2014, dated 2019).
Entries after “also recorded” stand apart in the source; their conditions may differ.

What was measured:
[1] = tested on: Radio-resistant colorectal cancer tissue of patient (case C65); assay: In vivo/ex vivo imaging and phage elution of Cy5.5-labeled peptide-expressing phages in mouse model transplanted with patient's colorectal cancer tissue (Example 4); set-up: species or system nude mouse; conditions: case C65, irradiated population (2 Gy)
Text: Then, the distributed cancer tissue was kept in a specific preservative solution and transferred directly to an animal chamber, so as to maintain a state in which the cancer tissue was not separated from a patient yet. After an NOD/SCID mouse was anesthetized via intraperitoneal injection of anesthetics, the cancer tissue was cut into pieces each having a size of 3×3 mm. Next, each of both flanks of the NOD/SCID mouse was transplanted with a piece of the cut cancer tissues, and sutured. The NOD/SCID mouse was then recovered on a heating pad for about 2 hours (conditions of the preservative solution: HBSS containing 100 IU/ml penicillin, 100 μg/ml streptomycin, 100 μg/ml gentamicin, 2.5 μg/ml amphotericin B, and 5% fetal bovine serum). After completion of the transplantation, the NOD/SCID mouse was raised until tumors were formed. Meanwhile, the formation and growth of tumors were checked at least once a week. When the transplanted cancer tissues grew to a size of at least 500 mm^3, an extraction process was performed thereon. Then, the extracted cancer tissues were each cut into pieces each having a size of 3×3 mm for subculturing. A nude mouse was anesthetized via intraperitoneal injection of anesthetics, and a piece of the cut cancer tissues was transplanted subcutaneously on the right thigh of the nude mouse. A transplantation site was changed from the flank to the thigh so that irradiation can be locally done without affecting other organs during irradiation. That is, a finally used mouse model transplanted with a patient's colorectal cancer tissue in the present invention was a mouse model established in a way that a cancer tissue that underwent subculturing four times was re-transplanted to form a cancer tissue. When the size of the cancer tissue was increased to about 250 mm^3, only the cancer tissue was irradiated with 2 grays (Gy) of radiation. After having recovery time for no longer than 24 hours, in vivo peptide screening was performed. Here, a non-irradiated population, which is a control group, was also subjected to screening in a separate manner.
In detail, regarding in vivo imaging verification, the peptide-expressing phage was amplified, and a process of linking a fluorescent probe (Cy5.5) was performed. In particular, 1 μg/μl of N-hydroxysuccinimide esters of Cy5.5 (Amersham) was added to 1 mL of bicarbonate buffer (pH 8.3) having the phage concentration of 10^12 plaque forming units (pfu), and then, in a condition where a dark environment was maintained, a phage-surface protein was linked to the Cy5.5 fluorescent probe at room temperature for 3 hours. That is, amine groups of the phage-surface protein were chemically linked to N-hydroxysuccinimide esters of the Cy5.5 fluorescent probe via a covalent bond. The peptide-expressing phages to which the Cy5.5 fluorescent probe was linked were each obtained by precipitation with 170 μl of 20% (w/v) PEG 8000/2.5 M NaCl solution and purification. To determine a proportion of the Cy5.5 fluorescent probe linked to each of the finally obtained phage samples, an IVIS spectrum imaging system (Xenogen) was used for measurement, and region of interest (ROI) values were determined using the software program of a corresponding device.
In addition, on the last day of the in vivo imaging, the cancer tissues were each extracted, to thereby obtain ex vivo images thereof.

[2] = tested on: colorectal cancer tissue of radio-resistant case (case C65) and radio-sensitive case (case C87); assay: Crossover in vivo imaging of B5 peptide-expressing phage in 4 populations (Example 5); set-up: species or system mouse; conditions: 4 populations (C65 and C87, irradiated and non-irradiated); tail vein injection, images until 7th day; compared with Cy5.5 dye and empty phage
Experimental: Among the various peptide-expressing phages selected from the above, the in vivo imaging was attempted again for a B5 peptide, which is a peptide sequence screened only from the irradiated population in the radio-resistant case (case C65). At the same time, to confirm the responsiveness in control groups other than the population of interest, a crossover experiment was carried out. In detail, in the presence of differences in irradiation between the radio-sensitive case and the radio-resistant case of Example 1, the in vivo imaging was carried out to determine the targeting of the B5 peptide sequence in 4 populations in total. Here, the irradiated population of case C65 was set as an experimental group while the non-irradiated population of case C65 and all the populations of case C87 were set as control groups. In the same manner as in Example 4, peptide-expressing phages were amplified and a process of linking a Cy5.5 fluorescent probe was carried out. Then, through the tail vein injection in each population, images thereof were observed until the end of the last 7th day. […]

[3] = tested on: radio-resistant colorectal cancer patient case (C65) cancer tissue; assay: Immunohistochemical staining of extracted cancer tissues with anti-M13 antibody (Example 6); type: in vivo, mouse; conditions: cancer tissues of each population extracted after imaging
Experimental: To verify histological targeting ability of the B5 peptide sequence verified in Example 5, the imaging of the B5 peptide sequence was obtained. Then, cancer tissues of each population were extracted to prepare paraffin blocks and slices. In detail, (1) the extracted cancer tissues were immersed in a formaldehyde solution at room temperature for 24 hours in terms of for immobilization. Then, following a dehydration process, paraffin was added to the solution through penetration to form paraffin blocks. Afterwards, a microtome was used to manufacture slices having a thickness of 3 μm. To perform real immunohistological staining, (2) following a deparaffinization process performed on the slices, (3) an unmasking process was performed so that structures of various proteins immobilized to the tissue slices were recovered to restore sites where antibodies normally bind. Sequentially, (4) a blocking process was performed using a 5% BSA solution, (5) primary antibodies were bound (wherein the antibodies used herein were anti-mouse M13 IgG recognizing M13 phage capsid proteins), (6) and secondary antibodies were bound while HRP was bound. Afterwards, (7) sites where phages were present were stained using DAB development, (7) the nuclei […] were stained with hematoxylin, and (8) a dehydration process was performed thereon. […]

[4] = tested on: radio-resistant colorectal cancer tissue (radio-resistant case 1, other patient); assay: In vivo imaging of B5 peptide-expressing phage in other patients' colorectal cancer tissue (Example 7); set-up: species or system mouse; conditions: other patient's radio-resistant tissue, with and without irradiation
Experimental: (§1) In detail, by extending the crossover experiment verified in Example 4, radio-sensitive case 1 and radio-resistant case 1 regarding other colorectal cancer tissues of a patient characterized as adenocarcinoma were introduced in addition to the radio-sensitive case and the radio-resistant case of Example 1. In the same manner as in Example 4, the B5 peptide-expressing phages were amplified and a process of linking a Cy5.5 fluorescent probe was carried out. Regarding the confirmation of the targeting ability of the B5 peptide, the in vivo imaging was used for observation in the same manner as in Example 5. […] In detail, the targeting ability of the B5 peptide sequence targeting a factor inducing resistance against radiation during radiation therapy in Example 6 was also verified in other colorectal cancer tissues of a radio-resistant patient, thereby confirming the possibility of the B5 peptide sequence as a sequence that is responsive to cancer microenvironments causing induction of resistivity during radiotherapy on colorectal cancer. However, in the patients having radio-sensitive colorectal cancer, it was clearly confirmed that the B5 peptide sequence, as a peptide sequence showing no targeting ability regardless of irradiation, was a sequence selectively tracing a radio-resistant factor. […]

[5] = tested on: radio-sensitive colorectal cancer tissue (radio-sensitive case 1, other patient); assay: as above; set-up: species or system mouse; conditions: other patient's radio-sensitive tissue, with and without irradiation
Experimental: as §1

TPSFSKI [B5]
in vivo ROI ([1]; Cy5.5 fluorescence total flux standardized to Cy5.5 dye control): 4.07
pfu/mg (concentration of eluted phages relative to weight of cancer tissue) ([1]; extracted cancer tissue): 209.47 pfu/mg
ex vivo ROI ([1]; extracted cancer tissue, standardized to Cy5.5 dye control): 2.43
targeting ability by in vivo imaging (crossover experiment) [2]: specific binding of a B5 peptide sequence only to an irradiated population in radio-resistant case; also recorded: only the irradiated population of the radio-resistant case (case C65) has exhibited excellent targeting ability
histological targeting ability (immunohistochemical staining of phage) [3]: excellent targeting ability; also recorded: specifically bound only to the irradiated population in the radio-resistant colorectal cancer patient case (C65)
targeting ability by in vivo imaging [4]: exhibited targeting ability only in the case of irradiation
targeting ability by in vivo imaging [5]: did not show any targeting ability regardless of irradiation
